# Experiments:
# [1] = test system: MYC-CTNNB1 tumor organoids; experiment: Combination treatment matrices in MYC-CTNNB1 tumor organoids; assay type: cell-based, mouse; conditions: for effect of EZH2 degradation or inhibition (MS1943, GSK343) on activity: 3 days MS1943 or GSK343, then 3 days co-treatment; for Combination Index CI with p38i SB202190: titration of SB202190; for Combination Index CI with p38i SB202190 / Combination Index CI with KIT ligand SCF / Combination Index CI with BRAFi dabrafenib: 3 days; for Combination Index CI with KIT ligand SCF: titration of SCF; for Combination Index CI with BRAFi dabrafenib: titration of dabrafenib
# Description: FIG. 6A-6C are Volcano plots depicting phosphoproteomic (FIG. 6A), transcriptomic (FIG. 6B), and orepigenomic H3K27me3 (FIG. 6C) changes elicited by WNTinib inMYC-CTNNB1 tumor organoids (left) or MYC-Tp53 tumor organoids (right) as compared to DMSO. […] Values obtained from two biological replicates. […] Western blots measure endogenous proteins as indicated. […] Tubulin and histone H3 used as fractionation controls. […] Inset: western blot depicting depletion efficiency. Values obtained from three biological replicates [mean, SEM]. […] Tumor organoids were first treated with MS1943 or GSK343 for 3 days, followed by co-treatment with sorafenib or WNTinib for an additional 3 days. […] Combination index (CI) values were calculated for each column and averaged across each matrix.
# Tumor organoids were treated for 3 days. […] Combination index (CI) values were calculated for each column and averaged across each matrix. […] FIGS. 7G-7H show combination treatment matrices for MYC-CTNNB1 tumor organoids treated with sorafenib (right) or WNTinib (left) and the BRAF inhibitor dabrafenib (FIG. 7G), or the p38 inhibitor SB202190 (FIG. 7H). Tumor organoids were treated for 3 days. […] Combination index (CI) values were calculated for each column and averaged across each matrix. […] Values obtained from three technical replicates [mean, SEM].
# For assays in organoid lines, 96 well plates were first coated with a 50:50 solution of basal media:Matrigel (35 μL/well), which polymerized for 15 minutes at 37° C. Tumor organoids were taken out of Matrigel, broken, and washed. Tumor organoids were seeded at 1,000 cells per well and were treated the following day with serial dilutions (in the case of IC50 curves) or single doses (in the case of the initial screen) of drugs in technical triplicate. Final DMSO concentrations were kept below 0.5%. For adherent lines, cells were seeded at 5,000 cells per well in uncoated 96 well plates. […] Viability was measured three days post drug administration with either luminescence from CellTiter-Glo or absorbance at 560 and 590 nm from resazurin. Viability data was analyzed by normalizing individual drug-treated well values to DMSO-treated wells.
# [2] = test system: MYC-lucOS; CTNNB1 mutant HCC; experiment: Hydrodynamic tail vein model of CTNNB1-mutated HCC, survival; assay type: in vivo, C57/BL6 mice; conditions: 5 days on/2 days off
# Procedure: A sterile 0.9% NaCl solution/plasmid mix was prepared containing DNA—12 μg of pT3-EF1α-MYC-IRES-luciferase-OS (MYC-lucOS), 10 μg of pT3-N90-CTNNB1 (CTNNB1), and a 4:1 ratio of transposon to SB13 transposase-encoding plasmid. A volume equivalent to 10% of mouse body weight was injected through the tail vein using a 3 mL syringe with a 26-gauge needle (11). Animals were monitored for 6 days, and bioluminescent signal from tumors was visualized using an IVIS Spectrum system. Anesthetized mice were imaged 5 minutes after intraperitoneal injection of 100 mg/kg D-luciferin (Thermo Fisher Scientific). IVIS Living Image software was used to quantify luciferase signal, which was normalized by subtracting background signal. […] Oral drug treatment began in randomized arms seven days after plasmid injection. Kinase inhibitors were prepared as stated above, and WNTinib and sorafenib were dosed at concentrations of 20 mg/kg and 30 mg/kg, respectively. Drugs were administered following a 5 days on/2 days off treatment schedule. Body weights were recorded daily, and animals were monitored for signs of sickness, tumor palpability, and death. Sick animals were sacrificed according to the ISMMS IACUC guidelines.
# Given that tumors with dysregulated WNT signaling are associated with tumor immune exclusion and overall are refractory to treatment with immune checkpoint inhibitors, the efficacy of WNTinib was tested in combination with immunotherapy. First, a hydrodynamic tail vein mouse model of MYC-lucOS, CTNNB1 mutant HCC, which is known to be refractory to treatment with anti-PD-1 was used (Ruiz de Galarreta et al., “O-Catenin Activation Promotes Immune Escape and Resistance to Anti-PD-1 Therapy in Hepatocellular Carcinoma,” Cancer Discov. 9(8):1124-1141 (2019), which is hereby incorporated by reference in its entirety). C57/BL6 mice were randomized into treatment groups using IVIS imaging to quantify tumor size based on luminescence signal intensity. After randomization, kinase inhibitors were dissolved in 25% cremaphor:ethanol in water and administered orally (30 mg/kg sorafenib, 20 mg/kg WNTinib) beginning 7 days after injection following a 5 days on/2 days off dosing schedule. Immunotherapy (anti-PD-1) was administered via intraperitoneal injection on days 11, 13, and 15 after injection at […].
# pT367 EZH2 and pT71 ATF2 = conditions: WNTinib 1 μM, sorafenib 10 μM; for temporal inhibition of pT367 EZH2 and pT71 ATF2: MYC-CTNNB1 organoids, SB202190 10 μM, 48 hours time course; for modulation of pT367 EZH2 in the four tumor organoid models: 48 hours
# Procedure: Tumor organoids were grown in 24 well plates and were collected in Cell Recovery Solution (Corning) after drug treatment. Tumor organoids were left to rotate at 4° C. for one hour in order to dissolve the Matrigel. Tumor organoids were spun down at 300 g at 4° C. for 5 minutes. Pellets were lysed in 2× Laemmli buffer (+4% 2-mercaptoethanol) by heating at 95° C. for 10 minutes followed by 5 seconds of sonication. SDS-PAGE was run using standard procedures.
# kinome = experiment: Kinome profiling (KINOMEscan); assay type: binding
# Procedure: WNTinib's inhibitory profile was performed using Eurofins' (DiscoverX) KINOMVEscan platform. Inhibition trees were visualized using KinMap (Eid et al., “KinMap: A Web-Based Tool for Interactive Navigation through Human Kinome Data,” BMC 10 Bioinformatics 18(1):16 (2017), which is hereby incorporated by reference in its entirety). For regorafenib and sorafenib, publicly available data was used to visualize inhibition trees (Uitdehaag et al., “Comparison of the Cancer Gene Targeting and Biochemical Selectivities of All Targeted Kinase Inhibitors Approved for Clinical Use,” Plos ONE 9(3):e92146 (2014) and Davis et al., “Comprehensive Analysis of Kinase Inhibitor Selectivity,” Nat. Biotechnol. 29(11):1046-1051 (2011), which are hereby incorporated by reference in their entirety).
# [3] = Dose escalation studies in mice; assay type: in vivo, mouse
# Procedure: Mice were randomized into treatment groups, and daily oral dosing began one week after mice arrived at ISMMS. Body weight was recorded daily, and animals were monitored for any signs of sickness throughout the treatment period.
# To rationalize a treatment regimen for WNTinib and understand potential toxicity, in vivo dose escalation was performed in three mouse strains (FIG. 8A, FIGS. 12A-12B). Mice were dosed daily for two weeks, and body weight loss was used as a proxy for systemic toxicity.
# [4] = 14-day oral gavage tissue toxicity study; assay type: in vivo
# [5] = dosed daily via oral gavage for two weeks, three mouse strains
Compound,"effect of EZH2 degradation or inhibition (MS1943, GSK343) on activity [1]",Combination Index CI with p38i SB202190 [1],Combination Index CI with KIT ligand SCF [1],Combination Index CI with BRAFi dabrafenib [1],survival benefit ([2]; sorafenib 30 mg/kg),temporal inhibition of pT367 EZH2 and pT71 ATF2 (pT367 EZH2 and pT71 ATF2),modulation of pT367 EZH2 in the four tumor organoid models (pT367 EZH2 and pT71 ATF2),kinome selectivity (selectivity scores) (kinome; compared with sorafenib and regorafenib),kinase targets maintained (kinome; in vitro kinase assays),"tolerability of exposures ([3]; dose escalation and 20 mg/kg PK (FIG. 8A, 8B))","body weight loss [3, 5]","signs of sickness [3, 5]","remaining animals alive, time post final dosing ([2]; WNTinib 20 mg/kg)",share of treatment arm that succumbed to death ([2]; WNTinib 20 mg/kg),survival benefit ([2]; WNTinib 20 mg/kg),"pathological changes in brain, heart, esophagus, large intestine ([4]; 60 mg/kg and 120 mg/kg oral gavage, 14 days)","toxicity in mouse intestine ([4]; 14 days daily treatment, up to 4-fold the therapeutic dose)"
"CNC(=O)c1cc(Oc2ccc(NC(=O)Nc3ccc(Cl)c(C(F)(F)F)c3)cc2)ccn1 [sorafenib, reference compound]",did not alter the dose response to sorafenib,this was not the case for sorafenib,only WNTinib and not sorafenib activity was antagonized,this was not the case for sorafenib,7.5 days,transient inhibition,induced pT367 across several organoid models,–,–,–,–,–,–,–,–,–,–
"CNC(=O)c1cc(Oc2ccc(NC(=O)Nc3ccc(C(F)(F)C(F)(F)F)cc3)c(F)c2)ccn1 [WNTinib, 4-(3-fluoro-4-(3-(4-(perfluoroethyl)phenyl)ureido)phenoxy)-N-methylpicolinamide]",antagonized the activity of WNTinib,> 1,> 1,> 1,–,"delayed, but durable inhibition up to 48 hours",inhibited by WNTinib in the MYC-CTNNB1 model,generally less promiscuous than the parental compounds,"maintains several of the proposed key targets of sorafenib and regorafenib, including c-KIT, PDGFRα/β, VEGFR1/2, RET and FLT3",well-tolerated,weight loss did occur in a dose-dependent manner,No mice showed signs of sickness,over 300 days,40%,significant survival benefit,do not reveal pathological changes,no toxicity was observed in mouse intestine

# Reference: US20230404985A1, “METHODS OF TREATING TUMORS AND CANCERS HAVING DYSREGULATED WNT SIGNALING PATHWAYS” (ICAHN SCHOOL OF MEDICINE AT MOUNT SINAI, priority 2020, published 2023)
